ChEMBL document CHEMBL1201862, “PubChem BioAssay data set” (2004)
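Test compounds were applied to cells in 96-well plates for 48 hours at 5 doses. Abbreviation: GI50, concentration required for 50% inhibition of growth.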 Calls of active or inactive are those of the source. No stated cut-off is given here; in the data, active = GI50 up to about 1.1 µM and inactive = higher.

Key:
Experiment in all cases: inhibition of tumour cell growth, NCI panel, 48 h
[1] = system: MOLT-4
[2] = system: SNB-19
[3] = system: OVCAR-3
[4] = system: M14
[5] = system: SK-MEL-2
[6] = system: IGROV-1
[7] = system: A498
[8] = system: OVCAR-8
[9] = system: SK-MEL-28
[10] = system: UO-31
[11] = system: SK-OV-3
[12] = system: PC-3
[13] = system: COLO 205
[14] = system: U-251
[15] = system: ACHN
[16] = system: UACC-62
[17] = system: Malme-3M
[18] = system: HCC 2998
[19] = system: NCI-H23

Structure (SMILES) | GI50 [1] | GI50 [2] | GI50 [3] | GI50 [4] | GI50 [5] | GI50 [6] | GI50 [7] | GI50 [8] | GI50 [9] | GI50 [10] | GI50 [11] | GI50 [12] | GI50 [13] | GI50 [14] | GI50 [15] | GI50 [16] | GI50 [17] | GI50 [18] | GI50 [19]
N#CCCN(CCC#N)c1ccc(/C=C2\N=C(c3ccccc3)N(c3ccc(Cl)cc3)C2=O)cc1 | > 100 µM (inactive) | > 100 µM (inactive) | > 100 µM (inactive) | > 100 µM (inactive) | 76.6 µM (inactive) | > 100 µM (inactive) | > 100 µM (inactive) | > 100 µM (inactive) | > 100 µM (inactive) | 45.4 µM (inactive) | > 100 µM (inactive) | > 100 µM (inactive) | > 100 µM (inactive) | > 100 µM (inactive) | > 100 µM (inactive) | 39.7 µM (inactive) | > 100 µM (inactive) |  | 
CCCCCCCCCC/C=C/CC(=O)SCCNC(=O)CCNC(=O)[C@@H](O)C(C)(C)COP(=O)(O)OP(=O)(O)OCC1OC(n2cnc3c(N)ncnc32)C(O)C1OP(=O)(O)O (stereo not given in full) | > 10 µM (inactive) | > 10 µM (inactive) | > 10 µM (inactive) | > 10 µM (inactive) |  | > 10 µM (inactive) | > 10 µM (inactive) | > 10 µM (inactive) | > 10 µM (inactive) |  | > 10 µM (inactive) | > 10 µM (inactive) | > 10 µM (inactive) | > 10 µM (inactive) | > 10 µM (inactive) | > 10 µM (inactive) | > 10 µM (inactive) | > 10 µM (inactive) | > 10 µM (inactive)
CC(C)(NC(=O)OCc1ccccc1)C(=O)OC(=O)C(C)(C)NC(=O)OCc1ccccc1 | > 100 µM (inactive) | > 100 µM (inactive) | > 100 µM (inactive) | > 100 µM (inactive) | > 100 µM (inactive) | > 100 µM (inactive) | > 100 µM (inactive) | > 100 µM (inactive) | > 100 µM (inactive) | > 100 µM (inactive) | 54.2 µM (inactive) | > 100 µM (inactive) | > 100 µM (inactive) | > 100 µM (inactive) | > 100 µM (inactive) | 18.3 µM (inactive) | > 100 µM (inactive) |  | > 100 µM (inactive)
CC(=O)O[C@H]1C(=O)[C@@]2(C)[C@H]([C@H](OC(=O)c3ccccc3)[C@]3(O)C[C@H](OC(=O)[C@H](O)[C@@H](NC(=O)c4ccccc4)c4ccccc4)C(C)=C1C3(C)C)[C@]1(OC(C)=O)CO[C@@H]1C[C@@H]2O [PACLITAXEL] |  | 0.0121 µM (active) |  | 0.0229 µM (active) |  | 0.00708 µM (active) | 0.107 µM (active) |  |  | 1.09 µM (active) | 0.00881 µM (active) | 0.0182 µM (active) | 0.00303 µM (active) | 0.00384 µM (active) | 0.661 µM (active) | 0.00419 µM (active) | 0.029 µM (active) | 0.00341 µM (active) | 0.00396 µM (active)
COc1ccc(/N=N/C(=O)NC(CC(C)C)C(=O)NC(Cc2ccccc2)C(=O)O)cc1 (stereo not given) | 0.706 µM (active) | 72.9 µM (inactive) | 16.5 µM (inactive) | 0.459 µM (active) |  | 11.5 µM (inactive) | > 100 µM (inactive) | > 100 µM (inactive) | 4.85 µM (inactive) | 3.37 µM (inactive) |  | 0.463 µM (active) | 1.71 µM (inactive) | > 100 µM (inactive) | 0.347 µM (active) | 0.711 µM (active) | 7.55 µM (inactive) | 2.63 µM (inactive) | 16.3 µM (inactive)
N#Cc1c(-c2ccccc2)c(/C=N/c2ccc(Cl)cc2)c(=O)n2c1[nH]c1ccccc12 |  | > 100 µM (inactive) | 80.9 µM (inactive) | > 100 µM (inactive) | > 100 µM (inactive) | > 100 µM (inactive) | > 100 µM (inactive) | > 100 µM (inactive) | > 100 µM (inactive) | 34.4 µM (inactive) | > 100 µM (inactive) | > 100 µM (inactive) | 83 µM (inactive) | > 100 µM (inactive) | 65.2 µM (inactive) |  | > 100 µM (inactive) | > 100 µM (inactive) | > 100 µM (inactive)
